Legend:
[1] = system: B16F10-Cas9 cells co-cultured with Pmel-1 T cells; assay: Genome-scale CRISPR-Cas9 screen, selection with Pmel-1 T cells; type: cell-based, mouse; conditions: Table 3; B16F10-Cas9 cells pre-treated with IFNγ, co-cultured with Pmel-1 T cells 1:1 for three days; negative = depleted, positive = enriched
[2] = system: B16F10-Cas9 cells pulsed with SIINFEKL peptide, co-cultured with OT-I T cells; assay: Genome-scale CRISPR-Cas9 screen, selection with OT-I T cells; type: cell-based, mouse; conditions: Table 3; B16F10-Cas9 cells pulsed with SIINFEKL, co-cultured with OT-I T cells 1:1 for one day; negative = depleted, positive = enriched

Row | Sequence | Pmel+ (sgRNA Log(2) fold change, Pmel-1 selection versus control T cells) [1] | OT1 (sgRNA Log(2) fold change, OT-I selection versus control T cells) [2]
1 | GCAAATGTAGAAATGTCGTG (chemistry not fully specified) | -0.65 | -2.34
2 | GCAAGAGGTTATCAAACACG (chemistry not fully specified) | -0.79 | -2.17
3 | GCACTGCTCTCATAACCCAT (chemistry not fully specified) | 3.01 | -0.77
4 | GCAGGGGTCTCCTTATGTCG (chemistry not fully specified) | -1.13 | -2.67
5 | GCCAACATCTGCTTACTCGC (chemistry not fully specified) | -1.97 | -2.55
6 | GCCAGCTTTCTCGCACGTGG (chemistry not fully specified) | -2.01 | -0.61
7 | GCCCTTTACTTTCAGTACGG (chemistry not fully specified) | -0.93 | -2.52
8 | GCCTGTACCACGCAGCCAAG (chemistry not fully specified) | 0.00 | -2.37
9 | GCGTCGTCGACTTATGACTT (chemistry not fully specified) | -0.05 | -3.36
10 | GCTCAAGTACTCGCCCGACC (chemistry not fully specified) | -0.69 | -2.85
11 | GCTCACCACGGGCTGCAACG (chemistry not fully specified) | 2.34 | 0.43
12 | GCTCGATGGATAGCATTCAC (chemistry not fully specified) | 0.17 | -3.98
13 | GCTGCAGAGGCAGTTTGATG (chemistry not fully specified) | -0.70 | -3.06
14 | GCTGCCCCGCAGGATCATCA (chemistry not fully specified) | -2.00 | -2.94
15 | GCTGGGGAACTCAATTATAG (chemistry not fully specified) | 2.03 | -0.78
16 | GCTGTGGGGACTGCTAAAAG (chemistry not fully specified) | 2.22 | -1.12
17 | GCTGTTACTCCAGAGACACA (chemistry not fully specified) | -2.27 | -0.23
18 | GGAAACGTGGCATGTCTCGG (chemistry not fully specified) | 2.66 | 1.93
19 | GGAATCCCTGTGCTGATCGT (chemistry not fully specified) | -0.49 | -2.76
20 | GGACAAGACATGGAGACAGA (chemistry not fully specified) | 0.83 | -2.11
21 | GGACACCAAGTTATTCCGTG (chemistry not fully specified) | -2.89 | -3.20
22 | GGACGAGAGCAACATAAACA (chemistry not fully specified) | 2.15 | -0.03
23 | GGATAGACGCCCAGCCACTG (chemistry not fully specified) | 9.31 | 3.32
24 | GGATCCTGGCGATTCAACAT (chemistry not fully specified) | 0.74 | -3.11
25 | GGCCCCGACTCAGACCCGCG (chemistry not fully specified) | 3.60 | 5.15
26 | GGTATTCCCAGCATACGACA (chemistry not fully specified) | 5.25 | 3.32

Row | Sequence | Pmel+ (sgRNA Log(2) fold change, Pmel-1 selection versus control T cells) [1] | OT1 (sgRNA Log(2) fold change, OT-I selection versus control T cells) [2]
27 | GGTCATACTTAAAAGCACAA (chemistry not fully specified) | -0.81 | -2.07
28 | GGTTCCTTGCGGGACTCCGT (chemistry not fully specified) | -2.53 | -3.31
29 | GGTTCGCTTCTTCCAAACCA (chemistry not fully specified) | -2.08 | -2.41
30 | GTAGACAACAACATTCGCAG (chemistry not fully specified) | 2.97 | 0.33
31 | GTATAAGCCATTACGACGCA (chemistry not fully specified) | -1.52 | -2.81
32 | GTCTCTAGCAAAGTCCACGC (chemistry not fully specified) | 3.25 | -0.40
33 | GTCTTGTGCAAAAAGCCCGA (chemistry not fully specified) | -0.15 | -2.54
34 | GTGAGCCTGAGGAACCTGCT (chemistry not fully specified) | 3.08 | 1.01
35 | GTTTCTGGCATCCAAAGTAG (chemistry not fully specified) | 0.80 | -2.50
36 | TAAAAGTCCCTCCCTCAAAG (chemistry not fully specified) | 0.00 | -2.56
37 | TAAGCGTTGTTGACTACATG (chemistry not fully specified) | 0.00 | -3.02
38 | TAATTGCTGAGAATGTACTC (chemistry not fully specified) | 0.00 | -2.54
39 | TACTGATCATAAACGAACCA (chemistry not fully specified) | 0.25 | -3.34
40 | TAGCCGACAGAGATGTACCG (chemistry not fully specified) | 3.52 | 0.05
41 | TATACCAATACGCAAATACC (chemistry not fully specified) | 4.34 | 4.07
42 | TATGGAGCGGTGTATGCCCG (chemistry not fully specified) | 1.27 | -3.33
43 | TATGTGGAGCATAACCGGAG (chemistry not fully specified) | 3.80 | 2.95
44 | TCACTGCGTACGCGTCACTG (chemistry not fully specified) | 0.81 | -3.44
45 | TCAGCAACTGAGAACTCACT (chemistry not fully specified) | -2.37 | -1.37
46 | TCAGGATGCTGTGATAAGCG (chemistry not fully specified) | 2.98 | -0.67
47 | TCATAGCCAGAGCATACTCT (chemistry not fully specified) | -1.33 | -3.24
48 | TCATCTTCGGAGGGCTCAAG (chemistry not fully specified) | 2.75 | 0.18
49 | TCCCTTTGATGTGTTCCACG (chemistry not fully specified) | 4.23 | 3.40
50 | TCCGAACCGAATCATCACTG (chemistry not fully specified) | 10.23 | 3.59
51 | TCGGCTTCCCATTCTCCGGT (chemistry not fully specified) | 4.33 | 5.48
52 | TCTGTTGAAAGAGCGCCAAA (chemistry not fully specified) | -3.36 | -0.71
